System: mouse
Assay: Analgesic effect in acetic acid writhing test on mouse
Assay type: in vivo
Conditions: po, 20 min, 10 mg/kg orally, 60 minutes before 0.6% acetic acid i.p., count over 20 minutes relative to the reference group
Description: A suspension of the test compound (10 mg/kg) was orally administered to a mouse. 60 minutes after the administration, a 0.6% aqueous acetic acid solution was intraperitoneally administered in an amount of 10 mL/kg. The mouse was accommodated in a special cage from immediately after the administration until 20 minutes after, and the writhing response was counted. The mean count number was compared relative to the reference group, so as to examine the difference (student's t-test), and the analgesic effect was evaluated.

Row | SMILES | response vs control in vivo at 10 mg/kg
1 | Cc1noc(NC(=O)N2CCN(c3ccnc(-c4cccc(F)c4F)n3)CC2)c1C [Example 5, 4-[2-(2,3-difluorophenyl)pyrimidin-4-yl]-N-(3,4-dimethylisoxazol-5-yl)piperazine-1-carboxamide] | 42.2%
2 | Cc1noc(NC(=O)N2CCN(c3cncc(-c4ccc(F)cc4F)n3)CC2)c1C [Example 14, 4-[6-(2,4-difluorophenyl)pyrazin-2-yl]-N-(3,4-dimethylisoxazol-5-yl)piperazine-1-carboxamide] | 67.2%
3 | O=C(Nc1cccnc1)N1CCN(c2nccc(-c3ccc(F)cc3F)n2)CC1 [Example 15, 4-[4-(2,4-difluorophenyl)pyrimidin-2-yl]-N-pyridin-3-ylpiperazine-1-carboxamide] | 66.7%
4 | O=C(Nc1cccnn1)N1CCN(c2nccc(-c3ccc(F)cc3F)n2)CC1 [Example 17, 4-[4-(2,4-difluorophenyl)pyrimidin-2-yl]-N-pyridazin-3-ylpiperazine-1-carboxamide] | 56.9%
5 | Cc1noc(NC(=O)N2CCN(c3cc(-c4ccc(F)cc4F)ncn3)CC2)c1C [Example 19, 4-[6-(2,4-difluorophenyl)pyrimidin-4-yl]-N-(3,4-dimethylisoxazol-5-yl)piperazine-1-carboxamide] | 51.9%
6 | O=C(Nc1cccnc1)N1CCN(c2nccc(-c3ccccc3)n2)CC1 [Example 77, 4-(4-phenylpyrimidin-2-yl)-N-pyridin-3-ylpiperazine-1-carboxamide] | 46.8%
7 | O=C(Nc1cccnn1)N1CCN(c2nccc(-c3ccccc3)n2)CC1 [Example 79, 4-(4-phenylpyrimidin-2-yl)-N-pyridazin-3-ylpiperazine-1-carboxamide] | 38.9%
8 | O=C(Nc1cccnn1)N1CCN(c2nccc(-c3ccc(F)c(F)c3)n2)CC1 [Example 110, 4-[4-(3,4-difluorophenyl)pyrimidin-2-yl]-N-pyridazin-3-ylpiperazin-1-carboxamide] | 34.7%

From US20090163508A1, “AMIDE COMPOUND” (TAKEDA PHARMACEUTICAL COMPANY LIMITED, priority 2007, published 2009)
